The record followed here is ChEMBL document CHEMBL3217722, “Synthesis of hybrid 4-anilinoquinoline triazines as potent antimalarial agents, their in silico modeling and bioevaluation as Plasmodium falciparumtransketolase and -hematin inhibitors” (Medchemcomm, 2012).

Data set [1] deals with Plasmodium falciparum. Briefly: Antiplasmodial activity against chloroquine-sensitive Plasmodium falciparum 3D7 after 72 hrs by SYBR Green-1 dye-based fluorescence assay. The conditions noted are these: 3D7, 72 h. Format: functional, organism-based.
A further data set relates to Plasmodium yoelii. Nature of the data set: Inhibition of beta-hematin formation in Plasmodium yoelii infected Swiss mouse plasma after 16 hrs. Format: functional.
Data set [2] is described as follows: Selectivity index, ratio of IC50 for African green monkey Vero cells to IC50 for Plasmodium falciparum. Format: toxicity, cell-based. The conditions noted are these: read-out: Ratio IC50.
The test system of data set [3] is Plasmodium falciparum. Nature of the data set: Antiplasmodial activity against chloroquine-resistant Plasmodium falciparum K1 after 72 hrs by SYBR Green-1 dye-based fluorescence assay. The note with it: K1, 72 h. Format: functional, organism-based.
A short description of data set [4]: Inhibition of Plasmodium falciparum transketolase using fructose-6-phosphate as substrate by spectrophotometric analysis.

Structures are written as SMILES. Converted amounts (≈) assume the structure as drawn.

With `COc1cccc(Nc2nc(NCCCN3CCOCC3)nc(Nc3ccc(Nc4ccnc5cc(Cl)ccc45)cc3)n2)c1`, the IC50 – broadly, the point on the concentration scale where inhibition reaches its midpoint – with Plasmodium falciparum [1] came to 0.00298 µg/mL (≈ 0.00487 µM); in the data set on Plasmodium yoelii it was 3.49 µg/mL (≈ 5.7 µM). Further, the selectivity ratio in data set [2] was 2500.
In the case of `CCN1CCN(c2nc(Nc3ccc(Nc4ccnc5cc(Cl)ccc45)cc3)nc(N3CCc4ccccc4C3)n2)CC1`, the IC50 in the data set with Plasmodium falciparum [3] is 0.116 µg/mL (≈ 0.196 µM); in the data set with Plasmodium falciparum [1], 0.0121 µg/mL (≈ 0.0205 µM); in the data set with Plasmodium yoelii, 2.25 µg/mL (≈ 3.8 µM). Besides, the selectivity ratio in data set [2] was 75.9.
On to `COc1ccc(Nc2nc(NCCCN3CCOCC3)nc(Nc3ccc(Nc4ccnc5cc(Cl)ccc45)cc3)n2)cc1OC`, for which the half-maximal inhibitory concentration (IC50) is 0.0026 µg/mL (≈ 0.00405 µM) with Plasmodium falciparum [3], 0.00458 µg/mL (≈ 0.00713 µM) with Plasmodium falciparum [1] and 2.3 µg/mL (≈ 3.58 µM) with Plasmodium yoelii. For the same molecule, the selectivity ratio in data set [2] is 413.
With `Clc1ccc2c(Nc3ccc(Nc4nc(NCCN5CCOCC5)nc(N5CCOCC5)n4)cc3)ccnc2c1`, the results for the IC50 in the data set with Plasmodium falciparum [3], in the data set with Plasmodium falciparum [1] and with Plasmodium yoelii were 0.0532 µg/mL (≈ 0.0946 µM), 0.00587 µg/mL (≈ 0.0104 µM) and 9.82 µg/mL (≈ 17.5 µM), respectively. Moreover, the selectivity ratio in data set [2] was 41.6.
Consider `CCN1CCN(c2nc(Nc3ccc(Nc4ccnc5cc(Cl)ccc45)cc3)nc(Nc3ccc(OC)c(OC)c3)n2)CC1`, for which the IC50 was 0.0023 µg/mL (≈ 0.00376 µM) in the data set with Plasmodium falciparum [3], 0.00258 µg/mL (≈ 0.00421 µM) in the data set on Plasmodium falciparum [1], 2.45 µg/mL (≈ 4 µM) in the data set on Plasmodium yoelii and 85.5 µM in data set [4]. Besides, the selectivity ratio in data set [2] was determined as 624.
Regarding `COc1ccc(Nc2nc(Nc3ccc(Nc4ccnc5cc(Cl)ccc45)cc3)nc(N3CCN(C)CC3)n2)cc1OC`, the values for the IC50 in the data set with Plasmodium falciparum [3], in the data set with Plasmodium falciparum [1] and with Plasmodium yoelii were 0.00486 µg/mL (≈ 0.00813 µM), 0.00504 µg/mL (≈ 0.00843 µM) and 3.05 µg/mL (≈ 5.1 µM), respectively. In data set [2], the selectivity ratio was 169.
For `Clc1ccc(Nc2nc(NCCCN3CCOCC3)nc(Nc3ccc(Nc4ccnc5cc(Cl)ccc45)cc3)n2)cc1` the same measures were 0.00858 µg/mL (≈ 0.0139 µM), 0.00463 µg/mL (≈ 0.00751 µM), 2.25 µg/mL (≈ 3.65 µM) and 482.
For `Fc1cccc(Nc2nc(Nc3ccc(Nc4ccnc5cc(Cl)ccc45)cc3)nc(N3CCCCC3)n2)c1` the same measures were 0.107 µg/mL (≈ 0.197 µM), 0.129 µg/mL (≈ 0.238 µM), 3.1 µg/mL (≈ 5.73 µM) and 75.1.
As to `CN1CCN(c2nc(Nc3ccc(Nc4ccnc5cc(Cl)ccc45)cc3)nc(Nc3cccc(Cl)c3)n2)CC1`, the IC50 with Plasmodium falciparum [3] was determined as 0.0169 µg/mL (≈ 0.0295 µM); with Plasmodium falciparum [1], 0.00241 µg/mL (≈ 0.00421 µM); with Plasmodium yoelii, 2.42 µg/mL (≈ 4.23 µM); in data set [4] it was 80.2 µM. In addition, the selectivity ratio in data set [2] is 361.
On to `CN1CCN(c2nc(Nc3ccc(Nc4ccnc5cc(Cl)ccc45)cc3)nc(N3CCc4ccccc4C3)n2)CC1`, for which the IC50 in the data set with Plasmodium falciparum [1] was found to be 0.0281 µg/mL (≈ 0.0486 µM); in the data set with Plasmodium yoelii it was 2.81 µg/mL (≈ 4.86 µM). Moreover, in data set [2], the selectivity ratio came to 48.4.
As for `Clc1ccc2c(Nc3ccc(Nc4nc(NCCCN5CCOCC5)nc(N5CCCc6ccccc65)n4)cc3)ccnc2c1`, the IC50 in the data set with Plasmodium falciparum [3] is above 0.5 µg/mL; in the data set on Plasmodium falciparum [1], 0.0147 µg/mL (≈ 0.0236 µM); in the data set with Plasmodium yoelii, 2.4 µg/mL (≈ 3.86 µM). Further, the selectivity ratio in data set [2] was found to be 440.
Turning to `CCN1CCN(c2nc(Nc3ccc(Nc4ccnc5cc(Cl)ccc45)cc3)nc(Nc3cccc(Cl)c3)n2)CC1`, the IC50 is 0.00496 µg/mL (≈ 0.00846 µM) in the data set with Plasmodium falciparum [3], 0.00211 µg/mL (≈ 0.0036 µM) in the data set with Plasmodium falciparum [1], 2.06 µg/mL (≈ 3.51 µM) in the data set with Plasmodium yoelii and 74.5 µM in data set [4]. Further, the selectivity ratio in data set [2] is 318.
Take `Fc1cccc(Nc2nc(NCCN3CCOCC3)nc(Nc3ccc(Nc4ccnc5cc(Cl)ccc45)cc3)n2)c1`: the IC50 with Plasmodium falciparum [3] stood at 0.0781 µg/mL (≈ 0.133 µM); with Plasmodium falciparum [1], 0.04 µg/mL (≈ 0.0683 µM); with Plasmodium yoelii, 2.7 µg/mL (≈ 4.61 µM). For the same molecule, in data set [2], the selectivity ratio amounted to 122.
Turning to `Clc1ccc2c(Nc3ccc(Nc4nc(NCCCN5CCOCC5)nc(N5CCc6ccccc6C5)n4)cc3)ccnc2c1`, the IC50 in the data set on Plasmodium falciparum [3] was determined as 0.0555 µg/mL (≈ 0.0892 µM); with Plasmodium falciparum [1] it was 0.0203 µg/mL (≈ 0.0327 µM); in the data set with Plasmodium yoelii, 2.09 µg/mL (≈ 3.36 µM). The selectivity ratio in data set [2] came to 436.
`Clc1cccc(Nc2nc(NCCCN3CCOCC3)nc(Nc3ccc(Nc4ccnc5cc(Cl)ccc45)cc3)n2)c1`: the IC50 stood at 0.00882 µg/mL (≈ 0.0143 µM) with Plasmodium falciparum [3], 0.00382 µg/mL (≈ 0.0062 µM) in the data set with Plasmodium falciparum [1], 4.56 µg/mL (≈ 7.4 µM) in the data set with Plasmodium yoelii and 76.4 µM in data set [4]. Moreover, the selectivity ratio in data set [2] was 180.
With `CCN1CCN(c2nc(Nc3ccc(F)cc3)nc(Nc3ccc(Nc4ccnc5cc(Cl)ccc45)cc3)n2)CC1`, the values for the IC50 in the data set on Plasmodium falciparum [3], in the data set on Plasmodium falciparum [1] and in the data set on Plasmodium yoelii were 0.0198 µg/mL (≈ 0.0347 µM), 0.0111 µg/mL (≈ 0.0195 µM) and 2.64 µg/mL (≈ 4.63 µM), respectively. Besides, the selectivity ratio in data set [2] was determined as 88.2.
With `O=C(O)C(=O)Cc1ccc(O)cc1` [4-HYDROXYPHENYLPYRUVIC ACID], in data set [4], the IC50 turned out to be 103 µM.
Consider `CN1CCN(c2nc(Nc3ccc(Nc4ccnc5cc(Cl)ccc45)cc3)nc(N3CCOCC3)n2)CC1`, for which the IC50 turned out to be 0.00286 µg/mL (≈ 0.00538 µM) in the data set on Plasmodium falciparum [3], 0.00322 µg/mL (≈ 0.00605 µM) in the data set with Plasmodium falciparum [1] and 6.5 µg/mL (≈ 12.2 µM) in the data set on Plasmodium yoelii. In addition, the selectivity ratio in data set [2] amounted to 121.
For `CCN1CCN(c2nc(Nc3ccc(Nc4ccnc5cc(Cl)ccc45)cc3)nc(Nc3cccc(OC)c3)n2)CC1`, the IC50 is 0.0089 µg/mL (≈ 0.0153 µM) in the data set on Plasmodium falciparum [1] and 2.25 µg/mL (≈ 3.87 µM) with Plasmodium yoelii. In data set [2], the selectivity ratio amounted to 73.
On to `CCN1CCN(c2nc(Nc3ccc(Nc4ccnc5cc(Cl)ccc45)cc3)nc(Nc3cccc(F)c3)n2)CC1`, for which the IC50 in the data set with Plasmodium falciparum [1] is 0.00247 µg/mL (≈ 0.00433 µM); in the data set on Plasmodium yoelii, 2.06 µg/mL (≈ 3.61 µM); in data set [4], 75 µM. Besides, the selectivity ratio in data set [2] was 149.
On to `CCN1CCN(c2nc(Nc3ccc(Nc4ccnc5cc(Cl)ccc45)cc3)nc(Nc3ccc(OC)cc3)n2)CC1`, for which the figures for the IC50 in the data set on Plasmodium falciparum [3], in the data set on Plasmodium falciparum [1] and with Plasmodium yoelii were 0.00308 µg/mL (≈ 0.00529 µM), 0.00426 µg/mL (≈ 0.00732 µM) and 2.08 µg/mL (≈ 3.57 µM), respectively. Further, the selectivity ratio in data set [2] is 75.1.
For `Fc1ccc(Nc2nc(Nc3ccc(Nc4ccnc5cc(Cl)ccc45)cc3)nc(N3CCCCC3)n2)cc1` the same measures were above 0.5 µg/mL, 0.0417 µg/mL (≈ 0.0772 µM), 2.43 µg/mL (≈ 4.49 µM) and 520.
For `Clc1ccc2c(Nc3ccc(Nc4nc(NCCN5CCOCC5)nc(N5CCCc6ccccc65)n4)cc3)ccnc2c1` the same measures were 0.275 µg/mL (≈ 0.452 µM), 0.0174 µg/mL (≈ 0.0285 µM), 2.31 µg/mL (≈ 3.8 µM) and 588.
Consider `Fc1ccc(Nc2nc(NCCCN3CCOCC3)nc(Nc3ccc(Nc4ccnc5cc(Cl)ccc45)cc3)n2)cc1`, for which the IC50 with Plasmodium falciparum [1] is 0.0158 µg/mL (≈ 0.0264 µM); with Plasmodium yoelii, 2.17 µg/mL (≈ 3.62 µM). Further, in data set [2], the selectivity ratio came out at 682.
Regarding `Clc1cccc(Nc2nc(NCCN3CCOCC3)nc(Nc3ccc(Nc4ccnc5cc(Cl)ccc45)cc3)n2)c1`, the IC50 with Plasmodium falciparum [3] stood at 0.00649 µg/mL (≈ 0.0108 µM); in the data set with Plasmodium falciparum [1] it was 0.0306 µg/mL (≈ 0.0508 µM); with Plasmodium yoelii it was 2.01 µg/mL (≈ 3.34 µM). Also, the selectivity ratio in data set [2] was 101.
Consider `Clc1ccc2c(Nc3ccc(Nc4nc(NCCN5CCOCC5)nc(N5CCc6ccccc6C5)n4)cc3)ccnc2c1`, for which the results for the IC50 in the data set with Plasmodium falciparum [1] and in the data set on Plasmodium yoelii were 0.0452 µg/mL (≈ 0.0743 µM) and 2.08 µg/mL (≈ 3.42 µM), respectively. Further, the selectivity ratio in data set [2] turned out to be 1160.
With `CCN1CCN(c2nc(Nc3ccc(Cl)cc3)nc(Nc3ccc(Nc4ccnc5cc(Cl)ccc45)cc3)n2)CC1`, the IC50 was 0.00981 µg/mL (≈ 0.0167 µM) in the data set with Plasmodium falciparum [3], 0.00414 µg/mL (≈ 0.00706 µM) in the data set on Plasmodium falciparum [1] and 2.05 µg/mL (≈ 3.5 µM) in the data set with Plasmodium yoelii. For the same molecule, in data set [2], the selectivity ratio was 67.6.
As for `CN1CCN(c2nc(Nc3ccc(Nc4ccnc5cc(Cl)ccc45)cc3)nc(N3CCCc4ccccc43)n2)CC1`, the IC50 amounted to 0.0682 µg/mL (≈ 0.118 µM) in the data set on Plasmodium falciparum [3], 0.0126 µg/mL (≈ 0.0219 µM) in the data set with Plasmodium falciparum [1] and 2.48 µg/mL (≈ 4.29 µM) in the data set with Plasmodium yoelii. For the same molecule, in data set [2], the selectivity ratio came to 74.4.
As for `COc1cccc(Nc2nc(Nc3ccc(Nc4ccnc5cc(Cl)ccc45)cc3)nc(N3CCN(C)CC3)n2)c1`, the half-inhibitory concentration (IC50) in the data set on Plasmodium falciparum [1] was 0.00426 µg/mL (≈ 0.0075 µM); in the data set with Plasmodium yoelii, 2.05 µg/mL (≈ 3.61 µM). In addition, the selectivity ratio in data set [2] worked out at 117.
